Experimental data published in the CheMixHub viscosity set.
± gives the uncertainty stated by the source.

Experiment: xn = mol fraction of the nth substance listed

CCCCCO + CCCCCCC
viscosity (293.15 K, 100 kPa, x2 = 0.0249): 3.71 ± 0.044 mPa·s | viscosity (293.15 K, 100 kPa, x2 = 0.081): 3.099 ± 0.037 mPa·s | viscosity (293.15 K, 100 kPa, x2 = 0.1471): 2.521 ± 0.03 mPa·s | viscosity (293.15 K, 100 kPa, x2 = 0.259): 1.798 ± 0.022 mPa·s | viscosity (293.15 K, 100 kPa, x2 = 0.3365): 1.429 ± 0.018 mPa·s | viscosity (293.15 K, 100 kPa, x2 = 0.3987): 1.196 ± 0.015 mPa·s | viscosity (293.15 K, 100 kPa, x2 = 0.4734): 0.975 ± 0.013 mPa·s | viscosity (293.15 K, 100 kPa, x2 = 0.5627): 0.776 ± 0.01 mPa·s | viscosity (293.15 K, 100 kPa, x2 = 0.6484): 0.641 ± 0.009 mPa·s | viscosity (293.15 K, 100 kPa, x2 = 0.734): 0.544 ± 0.008 mPa·s | viscosity (293.15 K, 100 kPa, x2 = 0.8184): 0.474 ± 0.007 mPa·s | viscosity (293.15 K, 100 kPa, x2 = 0.9043): 0.42 ± 0.007 mPa·s | viscosity (293.2 K, 101 kPa, x1 = 0.3): 0.655 ± 0.045 mPa·s | viscosity (293.8 K, 101 kPa, x1 = 0.5): 0.924 ± 0.06 mPa·s | viscosity (293.9 K, 101 kPa, x1 = 0.051): 0.491 ± 0.036 mPa·s | viscosity (298.15 K, 100 kPa, x2 = 0.0249): 3.218 ± 0.038 mPa·s | viscosity (298.15 K, 100 kPa, x2 = 0.081): 2.702 ± 0.032 mPa·s | viscosity (298.15 K, 100 kPa, x2 = 0.1471): 2.211 ± 0.027 mPa·s | viscosity (298.15 K, 100 kPa, x2 = 0.259): 1.591 ± 0.02 mPa·s | viscosity (298.15 K, 100 kPa, x2 = 0.3365): 1.277 ± 0.016 mPa·s | viscosity (298.15 K, 100 kPa, x2 = 0.3987): 1.076 ± 0.014 mPa·s | viscosity (298.15 K, 100 kPa, x2 = 0.4734): 0.884 ± 0.012 mPa·s | viscosity (298.15 K, 100 kPa, x2 = 0.5627): 0.712 ± 0.01 mPa·s | viscosity (298.15 K, 100 kPa, x2 = 0.6484): 0.594 ± 0.008 mPa·s | viscosity (298.15 K, 100 kPa, x2 = 0.734): 0.507 ± 0.008 mPa·s | viscosity (298.15 K, 100 kPa, x2 = 0.8184): 0.445 ± 0.007 mPa·s | viscosity (298.15 K, 100 kPa, x2 = 0.9043): 0.396 ± 0.006 mPa·s | viscosity (298.15 K, 101.33 kPa, x1 = 0.0652): 0.4117 ± 0.0039 mPa·s | viscosity (298.15 K, 101.33 kPa, x1 = 0.1304): 0.4449 ± 0.0041 mPa·s | viscosity (298.15 K, 101.33 kPa, x1 = 0.2489): 0.5244 ± 0.0047 mPa·s | viscosity (298.15 K, 101.33 kPa, x1 = 0.3595): 0.6427 ± 0.0056 mPa·s | viscosity (298.15 K, 101.33 kPa, x1 = 0.4654): 0.8116 ± 0.007 mPa·s | viscosity (298.15 K, 101.33 kPa, x1 = 0.5682): 1.041 ± 0.0089 mPa·s | viscosity (298.15 K, 101.33 kPa, x1 = 0.6617): 1.338 ± 0.011 mPa·s | viscosity (298.15 K, 101.33 kPa, x1 = 0.7552): 1.713 ± 0.015 mPa·s | viscosity (298.15 K, 101.33 kPa, x1 = 0.8805): 2.418 ± 0.021 mPa·s | viscosity (298.15 K, 101.33 kPa, x1 = 0.9606): 3.057 ± 0.028 mPa·s | viscosity (303.15 K, 100 kPa, x2 = 0.0249): 2.804 ± 0.033 mPa·s | viscosity (303.15 K, 100 kPa, x2 = 0.081): 2.365 ± 0.028 mPa·s | viscosity (303.15 K, 100 kPa, x2 = 0.1471): 1.945 ± 0.024 mPa·s | viscosity (303.15 K, 100 kPa, x2 = 0.259): 1.415 ± 0.018 mPa·s | viscosity (303.15 K, 100 kPa, x2 = 0.3365): 1.145 ± 0.015 mPa·s | viscosity (303.15 K, 100 kPa, x2 = 0.3987): 0.971 ± 0.013 mPa·s | viscosity (303.15 K, 100 kPa, x2 = 0.4734): 0.805 ± 0.011 mPa·s | viscosity (303.15 K, 100 kPa, x2 = 0.5627): 0.655 ± 0.009 mPa·s | viscosity (303.15 K, 100 kPa, x2 = 0.6484): 0.551 ± 0.008 mPa·s | viscosity (303.15 K, 100 kPa, x2 = 0.734): 0.474 ± 0.007 mPa·s | viscosity (303.15 K, 100 kPa, x2 = 0.8184): 0.417 ± 0.007 mPa·s | viscosity (303.15 K, 100 kPa, x2 = 0.9043): 0.371 ± 0.006 mPa·s | viscosity (308.15 K, 100 kPa, x2 = 0.0249): 2.453 ± 0.029 mPa·s | viscosity (308.15 K, 100 kPa, x2 = 0.081): 2.08 ± 0.025 mPa·s | viscosity (308.15 K, 100 kPa, x2 = 0.1471): 1.72 ± 0.021 mPa·s | viscosity (308.15 K, 100 kPa, x2 = 0.259): 1.262 ± 0.016 mPa·s | viscosity (308.15 K, 100 kPa, x2 = 0.3365): 1.03 ± 0.013 mPa·s | viscosity (308.15 K, 100 kPa, x2 = 0.3987): 0.879 ± 0.012 mPa·s | viscosity (308.15 K, 100 kPa, x2 = 0.4734): 0.739 ± 0.01 mPa·s | viscosity (308.15 K, 100 kPa, x2 = 0.5627): 0.604 ± 0.009 mPa·s | viscosity (308.15 K, 100 kPa, x2 = 0.6484): 0.515 ± 0.008 mPa·s | viscosity (308.15 K, 100 kPa, x2 = 0.734): 0.438 ± 0.007 mPa·s | viscosity (308.15 K, 100 kPa, x2 = 0.8184): 0.39 ± 0.006 mPa·s | viscosity (308.15 K, 100 kPa, x2 = 0.9043): 0.349 ± 0.006 mPa·s | viscosity (308.15 K, 101.33 kPa, x1 = 0.0652): 0.368 ± 0.0035 mPa·s | viscosity (308.15 K, 101.33 kPa, x1 = 0.1304): 0.3956 ± 0.0037 mPa·s | viscosity (308.15 K, 101.33 kPa, x1 = 0.2489): 0.4627 ± 0.0042 mPa·s | viscosity (308.15 K, 101.33 kPa, x1 = 0.3595): 0.5523 ± 0.0049 mPa·s | viscosity (308.15 K, 101.33 kPa, x1 = 0.4654): 0.6821 ± 0.0059 mPa·s | viscosity (308.15 K, 101.33 kPa, x1 = 0.5682): 0.841 ± 0.0072 mPa·s | viscosity (308.15 K, 101.33 kPa, x1 = 0.6617): 1.062 ± 0.009 mPa·s | viscosity (308.15 K, 101.33 kPa, x1 = 0.7552): 1.353 ± 0.011 mPa·s | viscosity (308.15 K, 101.33 kPa, x1 = 0.8805): 1.931 ± 0.017 mPa·s | viscosity (308.15 K, 101.33 kPa, x1 = 0.9606): 2.382 ± 0.021 mPa·s | viscosity (313.15 K, 100 kPa, x2 = 0.0249): 2.155 ± 0.026 mPa·s | viscosity (313.15 K, 100 kPa, x2 = 0.081): 1.836 ± 0.022 mPa·s | viscosity (313.15 K, 100 kPa, x2 = 0.1471): 1.526 ± 0.019 mPa·s | viscosity (313.15 K, 100 kPa, x2 = 0.259): 1.132 ± 0.014 mPa·s | viscosity (313.15 K, 100 kPa, x2 = 0.3365): 0.936 ± 0.012 mPa·s | viscosity (313.15 K, 100 kPa, x2 = 0.3987): 0.798 ± 0.011 mPa·s | viscosity (313.15 K, 100 kPa, x2 = 0.4734): 0.674 ± 0.009 mPa·s | viscosity (313.15 K, 100 kPa, x2 = 0.5627): 0.557 ± 0.008 mPa·s | viscosity (313.15 K, 100 kPa, x2 = 0.6484): 0.485 ± 0.007 mPa·s | viscosity (313.15 K, 100 kPa, x2 = 0.734): 0.414 ± 0.007 mPa·s | viscosity (313.15 K, 100 kPa, x2 = 0.8184): 0.366 ± 0.006 mPa·s | viscosity (313.15 K, 100 kPa, x2 = 0.9043): 0.327 ± 0.006 mPa·s
